LD70 p.o. mouse, LD50 and IC50 data for 1 compound are collected here from patent US4479951A, “1.4;3.6-Dianhydrohexitol nitrates substituted by purine bases, processes for their preparation and pharmaceutical compositions” (Dr. Willmar Schwabe GmbH & Co., priority 1980, dated 1984).

The structures appear in SMILES notation.

Series [1] concerns mouse. Kind of series: acute toxicity, p.o. and i.p. (footnote of Table VII). The series is classed as in vivo. The conditions noted are these: p.o.
Assay in series [2]: as above
Type of series: in vivo. The conditions noted are these: mouse, in vivo, ip.

Series [3] deals with isolated rat aorta preparations. Put plainly: spasmolytic effectiveness, potassium chloride-induced contractions. The conditions noted are these: read-out: ED50 potassium chloride spasm.

A word on the LD50: it is the dose expected to kill half of the subjects tested. Read a low LD50 as greater toxicity. In series [1], `Nc1ncnc2c1ncn2[C@H]1CO[C@H]2[C@@H]1OC[C@@H]2O[N+](=O)[O-]` [1c/2c, 5-(9-Adenyl)-5-desoxy-1.4;3.6-dianhydro-L-iditol 2-nitrate] showed an LD70 p.o. mouse of 1600 mg/kg. Moreover, in series [2], the LD50 came out at 540 mg/kg. Also, the IC50 in series [3] was determined as 2800 nM.
